Measurements: patent publication US11767330B2, “Citrate salt, pharmaceutical compositions, and methods of making and using the same” (Foghorn Therapeutics Inc., priority 2021, dated 2023)
Entries after “also recorded” stand apart in the source; their conditions may differ.

What was measured:
Type in all cases: physicochemical
[1] = Physical stability by XRPD upon drying at 50° C. under vacuum and exposure to >95% RH
Procedure: (§1) X-Ray Powder Diffraction (XRPD). XRPD was performed using a Rigaku MiniFlex 600 in reflection mode (i.e., Bragg-Brentano geometry). Samples were prepared on Si zero-return wafers.
XRPD analysis was done in three stages. XRPD of the wet cake was done for all samples where solids were observed.
(§2) The solids were then exposed to >95% RH overnight. This humid environment was produced by placing a beaker of saturated potassium sulfate in water in a sealed container at RT. The materials exposed to these conditions were evaluated by XRPD, and their patterns were compared to those produced before.
as §2, with “The pattern FF-B was dried at 50° C. under vacuum for 3 h after filtration for further XRPD analysis. The solids” for “The solids”, “to those of the crystalline freebase along each step.” for “to those produced before.”

[2] = Thermal treatment of solid forms followed by XRPD; settings: heated, held, cooled down to RT
Procedure: Thermal Treatment of Amorphous Salt. […] The thermal events were measured by TGA/DSC and XRPD was used to study the resulting materials.
To study the effect of the temperature, the compound was subjected to a thermal treatment consisting of heating up the sample from RT up to 100° C. at a 10° C./min, and holding this temperature for 5 min to subsequently cool down to RT. The sample was collected and further analyzed with XRPD.
The sample was subjected to a thermal treatment consisting of heating the sample gradually (10° C./min) up to the first two thermal events shown by TGA/DSC analysis, i.e., 130 and 225° C. In each case, the temperature was held for 5 min, followed by cooling down to RT. The sample was collected and further analyzed with XRPD. […] Overall, the crystalline freebase Pattern FF-B obtained from acetone lost some crystallinity upon drying and exposure to humidity and heat.

[3] = Dynamic vapor sorption (DVS) hygroscopicity
Procedure: Dynamic Vapor Sorption (DVS). DVS was performed using a Q5000SA. The sample (5-15 mg) was loaded into a metallic quartz sample pan, suspended from a microbalance, and exposed to a humidified stream of nitrogen gas. Weight changes were relative to a matching empty reference pan opposite the sample, suspended from the microbalance. One of two methods was used:
Method 1: The sample was held for a minimum of 10 min at each level and only progressed to the next humidity level if there was <0.002% change in weight between measurements (interval: 5 s) or 60 min had elapsed.

[4] = Stability at 40° C./75% RH for 1 week; settings: for chemical purity by HPLC after storage / chiral purity by HPLC after storage / XRPD after storage: 40° C. and 75% RH
Procedure: The humid environment was generated with saturated sodium chloride in water in a sealed container. After one week, the sample appeared pale-yellow upon inspection.
(§3) The one-week stability at 75% RH was also tested. In this experiment, 12 mg of the dried crystalline freebase from MeOH were weighted in a 4 mL vial and placed in a 20 mL vial set at 40° C. and 75% RH for 1 week. The humid environment was generated with saturated sodium chloride in water in a sealed container.
as §3, with “the” for “the dried”, “was” for “were”

[5] = Amorphous to crystalline studies (long-term slurries, vapor diffusion, slow evaporation); settings: Am = amorphous
Procedure: Long-Term Slurries. Long-term slurries were carried out for the purpose of producing crystalline forms. […] In this procedure, 30 mg of solid was added to a 2 mL vial containing a 6.3 mm stir bar. Then, 3 vol. of solvent was added, followed by the addition of more solvent in 5 vol. increments until it formed a flowable slurry. After 10 days, the solids were filtered and transferred to an XRPD plate for further analysis on the wet cake. Overall, crystalline patterns were not observed after one week. However, a crystalline solid was observed after stirring in MeOH for about six weeks.
Vapor-Diffusion Crystallization onto Solution and Solids. […] A suitable solvent was added to completely dissolve the solid, while producing a solution of slightly undersaturated concentration. The open vial was placed inside a 20 mL scintillation vial and 3 mL of antisolvent was added to the 20 mL vial to diffuse into the solution. The 20 mL vial was capped, sealed with parafilm, and kept undisturbed at RT.
Vapor diffusion onto solids was also started. The procedure is very similar, with the only difference that the active pharmaceutical ingredient (API) is not dissolved in a solvent; the vapor diffused directly onto the solid. The samples were monitored for visual changes in the solid (color, texture, size, etc.) over 2 months.
Slow Evaporation. […] The samples that were thin slurries were filtered with a […] syringe filter to obtain a clear solution. In some cases, cosolvent was added to obtain a solution. A needle was inserted in the cap septa to allow the solvents to evaporate slowly. The solutions were monitored frequently for precipitation.

[6] = Solid form characterisation (TGA/DSC, KF, XRPD, HPLC chemical and chiral purity); settings: initial, before stability test
Procedure: Differential Scanning Calorimetry (DSC). DSC was performed using a Mettler Toledo DSC^3+. The sample (1-5 mg) was weighed directly in a 40 μL hermetic aluminum pan with a pinhole and analyzed according to the parameters in Tables 41 and 42.
High Performance Liquid Chromatography (HPLC). HPLC was conducted using an Agilent 1220 Infinity LC or Agilent 1220 Infinity 2 LC equipped with diode array detector (DAD). Flow rate range of the instrument is 0.2-5.0 mL/min, operating pressure range is 0-600 bar, temperature range is 5° C. above ambient to 60° C., and wavelength range is 190-600 nm.
Karl Fischer (KF) Titration. KF titration for water determination was performed using a Mettler Toledo C20S Coulometric KF Titrator equipped with a current generator cell with a diaphragm, and a double-platinum-pin electrode. The range of detection of the instrument is 1 ppm to 5% water. Aquastar™
CombiCoulomat fritless reagent was used in both the anode and cathode compartments. Samples of approximately 0.03-0.10 g were dissolved in the anode compartment and titrated until the solution potential dropped below 100 mV. Hydranal 1 wt. % water standard was used for validation prior to sample analysis.
Simultaneous Thermogravimetric Analysis and Differential Scanning Calorimetry (TGA and DSC). TGA and DSC were performed on the same sample simultaneously using a Mettler Toledo TGA/DSC^3+. Protective and purge gas was nitrogen at a flowrate of 20-30 mL/min and 50-100 mL/min, respectively. The desired amount of sample (5-10 mg) was weighed directly in a hermetic aluminum pan with pinhole and analyzed according to the parameters below:
as §1
XRPD was performed using a Bruker D8 Advance equipped with LYNXEYE detector in reflection mode (i.e., Bragg-Brentano geometry). Samples were prepared on Si zero-return wafers.

In the case of COc1cc(-c2cn(C)c(=O)c3cnc(N4CCC4)cc23)cc(OC)c1CN1CCC(CN2CCC3(CC2)CN(c2ccc4c(c2)C(=O)N([C@@H]2CCC(=O)NC2=O)C4)C3)CC1 [Pattern FF-A], the “physical stability (XRPD) upon drying at 50° C. under vacuum and exposure to >95% RH” value [1] is reported as “Reduction in the crystallinity”, the “XRPD after thermal treatment” value [2] is reported as “loss of some crystallinity” and the “HPLC chemical purity after DVS analysis” value [3] is reported as 98.68%. For the same compound, the “XRPD after DVS analysis” value [3] was “new signal at 26=5.8°”, the “hygroscopicity according to the European Pharmacopeia standards (DVS)” value [3] was “hygroscopic” and the “chemical purity by HPLC after storage” value [4] was 98.27%. For the same compound, the “chiral purity by HPLC after storage” value [4] was 94.55%.

In the case of COc1cc(-c2cn(C)c(=O)c3cnc(N4CCC4)cc23)cc(OC)c1CN1CCC(CN2CCC3(CC2)CN(c2ccc4c(c2)C(=O)N([C@@H]2CCC(=O)NC2=O)C4)C3)CC1.O=C(O)CC(O)(CC(=O)O)C(=O)O [citrate salt of compound R-D1], the “XRPD after thermal treatment” value [2] is reported as “None of these experiments resulted in crystalline solids”, the Pattern ([5]; antisolvent vapor diffusion onto solution, RT, solvent Benzyl alcohol, antisolvent Acetone) is reported as “Am” and the Pattern ([5]; antisolvent vapor diffusion onto solution, RT, solvent Benzyl alcohol, antisolvent EtOH) is reported as “Am”. For the same compound, the Pattern ([5]; antisolvent vapor diffusion onto solution, RT, solvent Benzyl alcohol, antisolvent MeOAc) was “Am”, the Pattern ([5]; antisolvent vapor diffusion onto solution, RT, solvent DMAC, antisolvent ACN) was “Am” and the Pattern ([5]; antisolvent vapor diffusion onto solution, RT, solvent DMAC, antisolvent Acetone) was “Am”. The Pattern ([5]; antisolvent vapor diffusion onto solution, RT, solvent DMAC, antisolvent DCM) was “Am”, the Pattern ([5]; antisolvent vapor diffusion onto solution, RT, solvent DMAC, antisolvent EtOAc) was “Am” and the Pattern ([5]; antisolvent vapor diffusion onto solution, RT, solvent DMAC, antisolvent IPA) was “Am”. The Pattern ([5]; antisolvent vapor diffusion onto solution, RT, solvent DMAC, antisolvent MEK) was “Am”, the Pattern ([5]; antisolvent vapor diffusion onto solution, RT, solvent DMSO, antisolvent Acetone) was “Am” and the Pattern ([5]; antisolvent vapor diffusion onto solution, RT, solvent DMSO, antisolvent DCM) was “Am”. For the same compound, the Pattern ([5]; antisolvent vapor diffusion onto solution, RT, solvent DMSO, antisolvent EtOH) was “Am”, the Pattern ([5]; antisolvent vapor diffusion onto solution, RT, solvent DMSO, antisolvent MEK) was “Am” and the Pattern ([5]; antisolvent vapor diffusion onto solution, RT, solvent DMSO, antisolvent MeOAc) was “Am”. The Pattern ([5]; vapor diffusion onto solids, over 2 months, antisolvent Chloroform) was “Am”, the Pattern ([5]; vapor diffusion onto solids, over 2 months, antisolvent Cyclohexane) was “Am” and the Pattern ([5]; vapor diffusion onto solids, over 2 months, antisolvent DCM) was “Am”. For the same compound, the Pattern ([5]; vapor diffusion onto solids, over 2 months, antisolvent Diethyl ether) was “Am”, the Pattern ([5]; vapor diffusion onto solids, over 2 months, antisolvent Hexanes) was “Am” and the Pattern ([5]; vapor diffusion onto solids, over 2 months, antisolvent MeOH) was “Am”. For the same compound, the Pattern ([5]; vapor diffusion onto solids, over 2 months, antisolvent Methyl cyclohexane) was “Am”, the Pattern ([5]; vapor diffusion onto solids, over 2 months, antisolvent MtBE) was “Am” and the XRPD after storage [4] was “did not show conversion to a crystalline form”.

For COc1cc(-c2cn(C)c(=O)c3cnc(N4CCC4)cc23)cc(OC)c1CN1CCC(CN2CCC3(CC2)CN(c2ccc4c(c2)C(=O)N([C@@H]2CCC(=O)NC2=O)C4)C3)CC1 [pattern FF-B], the “physical stability (XRPD) upon drying at 50° C. under vacuum and exposure to >95% RH” value [1] was “crystallinity of the compound decreased after drying the sample under vacuum; also recorded: Some of the crystallinity was regained after exposing the sample to high RH overnight”, the “XRPD pattern Dry” value ([1]; after drying, Am = amorphous) was “FF-B” and the “XRPD pattern Humid” value ([1]; after exposure to humidity, Am = amorphous) was “FF-B”. For the same compound, the “XRPD pattern Wet” value ([1]; solid form of compound R-D1, Am = amorphous) was “FF-B”, the “XRPD after thermal treatment” value [2] was “decreased crystallinity after exposure to 130 °C” and the “HPLC chemical purity after DVS analysis” value [3] was 99.06%. For the same compound, the “XRPD after DVS analysis” value [3] was “slight loss in crystallinity”, the “hygroscopicity according to the European Pharmacopeia standards (DVS)” value [3] was “hygroscopic” and the “Hygroscopicity by DVS (up to 95% RH)” value ([3]; mass change up to 95% RH) was over 8.80 wt. %. For the same compound, the “Purity by HPLC (%) [chiral]” value [6] was “[96.56] %”, the “Purity by HPLC (%) chemical” value [6] was 98.85% and the XRPD after storage [4] was “splitting of the signal at 5.3 and 13.7°”. The “chemical purity by HPLC after storage” value [4] was 98.56%, the “chiral purity by HPLC after storage” value [4] was 96.13% and the “Purity by HPLC (%) After 1 week 75% RH [chiral]” value ([4]; 40° C./75% RH) was “[96.13] %”. For the same compound, the “Purity by HPLC (%) After 1 week 75% RH chemical” value ([4]; 40° C./75% RH) was 98.56%.
